# Assay results reported in paper PMC8449129, “Single tracer-based protocol for broad-spectrum kinase profiling in live cells with NanoBRET” (STAR Protocols, 2021).
# Key:
# Test in all cases: cell-based
# Parameters in all cases: NanoBRET live-cell target engagement; % occupancy from displacement of tracer K10 on NanoLuc-kinase fusions, mean n=3
# Conditions in all cases: HEK293, read-out: % inhibition
# PLK3 = PLK3 (Homo sapiens, UniProt Q9H4B4)
# Description: (§1) • 18. Prepare 10× test compounds in OptiMEM • a. Dilute the test compound to 1000× in DMSO (or the test compound solvent). […] Add 10μL per well of 10× test compound or 10μL of the DMSO control to the 96-well plates containing cells with 1× tracer. Mix on orbital shaker for 15 s at 900 rpm. • 20. Incubate the plate at 37°C + 5% CO2 incubator for 2hr. Allow plate to cool to RT for ∼15 min, then proceed to NanoBRET^TM Assay section below. • 21. Immediately before the BRET measurements, prepare 3× Complete NanoBRET^TM Nano-Glo® Substrate in OptiMEM without serum or phenol red. […] Mix gently by inverting 5–10 times in a conical tube. (The final concentration of Extracellular NanoLuc inhibitor in the 3× solution is 60 μM, for a working concentration of 20 μM.) • a. Note: 3× solutions should be used within 1.5 h after preparation. • 22. […] Incubate 2–3 min at RT. Following addition of NanoBRET^TM Nano-Glo® Substrate, measure donor emission (e.g., 450 nm) and acceptor emission (e.g., 610 nm or 630 nm) using a NanoBRET™-compatible luminometer. Fractional occupancy Quantitation • 2. Determine Fractional Occupancy with the following equation; % Occupancy = [1 – (X – Z)/( Y – Z)]∗100 • Where: • X = BRET in the presence of the test compound and tracer, • Y = BRET in the presence of the 100% BRET Control (Tracer + DMSO) • Z = BRET for the Zero BRET Control, e.g., • a. BRET from the NanoLuc Control Vector • b. BRET from Kinase/NanoLuc fusion + saturating dose of control test compound.
# MYLK2 = MYLK2 (Homo sapiens, UniProt Q9H1R3)
# Description: as §1
# ICK = biological target: T1, ICK (Homo sapiens, UniProt Q9UPZ9)
# T1 construct: gene CILK1
# Description: as §1
# CLK2 = CLK2 (Homo sapiens, UniProt P49760)
# Description: as §1
# ABL2 = ABL2 (Homo sapiens, UniProt P42684)
# Description: as §1
# RPS6KA3 = RPS6KA3 (Homo sapiens, UniProt P51812)
# Description: as §1
# CDK15 = CDK15 (Homo sapiens, UniProt Q96Q40)
# Description: as §1
# RPS6KA4 = RPS6KA4 (Homo sapiens, UniProt O75676)
# Description: as §1
# RPS6KA1 = RPS6KA1 (Homo sapiens, UniProt Q15418)
# Description: as §1
# SGK1 = SGK1 (Homo sapiens, UniProt O00141)
# Description: as §1
# NUAK1 = NUAK1 (Homo sapiens, UniProt O60285)
# Description: as §1
# NEK11 = NEK11 (Homo sapiens, UniProt Q8NG66)
# Description: as §1
# MAP3K12 = MAP3K12 (Homo sapiens, UniProt Q12852)
# Description: as §1
# CDK1 = CDK1 (Homo sapiens, UniProt P06493)
# Description: as §1
# PTK2 = PTK2 (Homo sapiens, UniProt Q05397)
# Description: as §1
# STK16 = STK16 (Homo sapiens, UniProt O75716)
# Description: as §1
# MAPK6 = MAPK6 (Homo sapiens, UniProt Q16659)
# Description: as §1
# RPS6KA6 = RPS6KA6 (Homo sapiens, UniProt Q9UK32)
# Description: as §1
# CDK15, sequence (Q96Q40 whole entry): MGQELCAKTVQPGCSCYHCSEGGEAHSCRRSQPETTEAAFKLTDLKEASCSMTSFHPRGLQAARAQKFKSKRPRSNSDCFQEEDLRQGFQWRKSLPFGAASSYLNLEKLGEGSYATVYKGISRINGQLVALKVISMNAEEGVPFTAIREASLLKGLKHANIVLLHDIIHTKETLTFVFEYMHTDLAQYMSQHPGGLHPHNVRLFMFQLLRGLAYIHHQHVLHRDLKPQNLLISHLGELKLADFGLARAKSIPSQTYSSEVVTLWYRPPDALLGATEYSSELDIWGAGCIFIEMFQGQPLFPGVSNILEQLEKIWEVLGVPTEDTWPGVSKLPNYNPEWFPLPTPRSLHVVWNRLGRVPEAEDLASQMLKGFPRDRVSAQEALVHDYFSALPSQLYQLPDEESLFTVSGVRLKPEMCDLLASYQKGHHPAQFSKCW
# RPS6KA6, sequence (Q9UK32 whole entry): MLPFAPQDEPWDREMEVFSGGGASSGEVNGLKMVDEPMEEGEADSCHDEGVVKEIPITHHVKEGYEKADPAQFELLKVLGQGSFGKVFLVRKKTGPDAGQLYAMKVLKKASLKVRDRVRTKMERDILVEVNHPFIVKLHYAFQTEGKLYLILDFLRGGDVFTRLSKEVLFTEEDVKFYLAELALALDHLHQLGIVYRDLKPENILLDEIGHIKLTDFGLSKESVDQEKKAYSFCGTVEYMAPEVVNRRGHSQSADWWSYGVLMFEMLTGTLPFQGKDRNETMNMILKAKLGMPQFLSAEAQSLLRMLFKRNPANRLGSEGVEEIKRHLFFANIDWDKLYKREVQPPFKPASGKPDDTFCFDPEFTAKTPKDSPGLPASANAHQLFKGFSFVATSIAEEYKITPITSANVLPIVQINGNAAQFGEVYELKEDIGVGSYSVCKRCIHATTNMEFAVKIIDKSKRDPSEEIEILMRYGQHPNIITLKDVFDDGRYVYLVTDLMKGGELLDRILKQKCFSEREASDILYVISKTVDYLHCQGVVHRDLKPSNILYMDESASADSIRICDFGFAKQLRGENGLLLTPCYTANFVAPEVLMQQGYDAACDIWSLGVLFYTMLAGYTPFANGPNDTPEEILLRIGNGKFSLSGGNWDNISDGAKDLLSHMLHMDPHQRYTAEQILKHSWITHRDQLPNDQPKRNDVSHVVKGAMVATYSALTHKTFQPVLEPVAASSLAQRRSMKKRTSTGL
# SGK1, sequence (O00141 whole entry): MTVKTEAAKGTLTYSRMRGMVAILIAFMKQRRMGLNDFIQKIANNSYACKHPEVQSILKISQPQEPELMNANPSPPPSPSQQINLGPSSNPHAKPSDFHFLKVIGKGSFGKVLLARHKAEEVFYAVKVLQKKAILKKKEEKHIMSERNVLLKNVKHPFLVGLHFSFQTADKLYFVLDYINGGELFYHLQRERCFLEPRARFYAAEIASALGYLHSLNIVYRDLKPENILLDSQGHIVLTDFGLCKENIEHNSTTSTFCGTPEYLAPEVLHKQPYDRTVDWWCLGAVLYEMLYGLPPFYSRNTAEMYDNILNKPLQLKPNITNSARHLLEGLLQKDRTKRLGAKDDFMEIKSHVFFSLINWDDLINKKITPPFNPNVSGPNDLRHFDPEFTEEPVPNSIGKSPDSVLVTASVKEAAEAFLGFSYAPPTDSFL
# ABL2, sequence (P42684 whole entry): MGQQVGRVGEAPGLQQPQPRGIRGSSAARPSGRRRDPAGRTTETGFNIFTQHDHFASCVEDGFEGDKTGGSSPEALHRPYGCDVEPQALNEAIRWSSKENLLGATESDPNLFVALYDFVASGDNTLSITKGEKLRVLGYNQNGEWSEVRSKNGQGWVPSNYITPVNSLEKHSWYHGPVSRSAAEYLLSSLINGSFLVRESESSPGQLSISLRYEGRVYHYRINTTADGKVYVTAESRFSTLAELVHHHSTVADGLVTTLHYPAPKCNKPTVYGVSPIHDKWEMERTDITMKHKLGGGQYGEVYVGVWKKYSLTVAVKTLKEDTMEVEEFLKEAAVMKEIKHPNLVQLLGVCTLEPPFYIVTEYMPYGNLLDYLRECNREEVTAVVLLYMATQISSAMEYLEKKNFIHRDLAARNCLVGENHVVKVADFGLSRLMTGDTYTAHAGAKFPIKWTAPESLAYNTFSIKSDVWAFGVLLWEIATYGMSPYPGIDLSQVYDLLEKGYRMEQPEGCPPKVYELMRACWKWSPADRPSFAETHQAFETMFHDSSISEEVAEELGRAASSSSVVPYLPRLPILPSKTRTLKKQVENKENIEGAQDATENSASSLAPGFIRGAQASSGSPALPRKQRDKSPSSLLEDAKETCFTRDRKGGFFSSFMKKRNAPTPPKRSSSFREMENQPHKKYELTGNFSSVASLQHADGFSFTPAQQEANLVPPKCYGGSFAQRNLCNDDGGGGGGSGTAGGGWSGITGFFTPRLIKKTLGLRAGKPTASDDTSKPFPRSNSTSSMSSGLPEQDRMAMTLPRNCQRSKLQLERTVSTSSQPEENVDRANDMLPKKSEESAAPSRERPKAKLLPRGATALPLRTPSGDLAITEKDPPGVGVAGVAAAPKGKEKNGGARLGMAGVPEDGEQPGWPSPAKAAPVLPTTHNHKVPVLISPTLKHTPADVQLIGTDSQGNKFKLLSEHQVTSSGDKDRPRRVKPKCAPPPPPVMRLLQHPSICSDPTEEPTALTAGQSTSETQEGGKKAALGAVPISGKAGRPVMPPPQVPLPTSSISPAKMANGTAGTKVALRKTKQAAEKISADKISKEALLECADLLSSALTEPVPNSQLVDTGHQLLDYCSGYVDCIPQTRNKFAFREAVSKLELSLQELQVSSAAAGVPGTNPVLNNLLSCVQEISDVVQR
# STK16, sequence (O75716 whole entry): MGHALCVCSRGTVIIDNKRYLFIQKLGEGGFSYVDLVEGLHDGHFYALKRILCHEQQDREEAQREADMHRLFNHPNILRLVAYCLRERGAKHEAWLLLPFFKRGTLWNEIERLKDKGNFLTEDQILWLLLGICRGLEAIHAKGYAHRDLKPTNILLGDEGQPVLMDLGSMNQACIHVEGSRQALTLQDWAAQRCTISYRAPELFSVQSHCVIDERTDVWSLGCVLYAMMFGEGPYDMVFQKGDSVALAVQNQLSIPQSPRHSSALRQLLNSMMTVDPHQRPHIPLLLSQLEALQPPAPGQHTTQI
# PTK2, sequence (Q05397 whole entry): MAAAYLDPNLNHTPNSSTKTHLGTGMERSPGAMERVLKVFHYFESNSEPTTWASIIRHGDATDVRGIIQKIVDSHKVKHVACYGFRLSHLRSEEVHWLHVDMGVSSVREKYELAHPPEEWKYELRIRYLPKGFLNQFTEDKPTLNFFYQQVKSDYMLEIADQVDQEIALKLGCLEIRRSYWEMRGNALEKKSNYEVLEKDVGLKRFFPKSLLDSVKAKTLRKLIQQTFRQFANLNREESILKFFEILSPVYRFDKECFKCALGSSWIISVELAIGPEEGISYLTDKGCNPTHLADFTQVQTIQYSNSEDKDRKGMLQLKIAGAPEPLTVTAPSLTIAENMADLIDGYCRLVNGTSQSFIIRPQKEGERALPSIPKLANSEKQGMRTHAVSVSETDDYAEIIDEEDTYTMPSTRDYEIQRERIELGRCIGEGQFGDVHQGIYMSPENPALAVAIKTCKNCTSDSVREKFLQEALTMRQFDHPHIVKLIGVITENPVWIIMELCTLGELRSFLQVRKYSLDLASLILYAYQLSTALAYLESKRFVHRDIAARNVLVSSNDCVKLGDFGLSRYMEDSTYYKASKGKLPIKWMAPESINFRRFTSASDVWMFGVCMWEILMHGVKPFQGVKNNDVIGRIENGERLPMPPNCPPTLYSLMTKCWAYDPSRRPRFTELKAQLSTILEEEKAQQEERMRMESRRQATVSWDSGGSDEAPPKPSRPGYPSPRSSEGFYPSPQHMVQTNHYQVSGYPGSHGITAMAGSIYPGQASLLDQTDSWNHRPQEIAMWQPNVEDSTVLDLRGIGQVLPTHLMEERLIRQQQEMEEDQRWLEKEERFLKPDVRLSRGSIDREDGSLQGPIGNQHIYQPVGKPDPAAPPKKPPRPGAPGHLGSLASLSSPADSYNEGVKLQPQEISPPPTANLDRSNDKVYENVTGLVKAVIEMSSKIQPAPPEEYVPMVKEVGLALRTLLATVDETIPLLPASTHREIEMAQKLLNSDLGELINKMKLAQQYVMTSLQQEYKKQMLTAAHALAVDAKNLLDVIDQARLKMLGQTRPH
# NUAK1, sequence (O60285 whole entry): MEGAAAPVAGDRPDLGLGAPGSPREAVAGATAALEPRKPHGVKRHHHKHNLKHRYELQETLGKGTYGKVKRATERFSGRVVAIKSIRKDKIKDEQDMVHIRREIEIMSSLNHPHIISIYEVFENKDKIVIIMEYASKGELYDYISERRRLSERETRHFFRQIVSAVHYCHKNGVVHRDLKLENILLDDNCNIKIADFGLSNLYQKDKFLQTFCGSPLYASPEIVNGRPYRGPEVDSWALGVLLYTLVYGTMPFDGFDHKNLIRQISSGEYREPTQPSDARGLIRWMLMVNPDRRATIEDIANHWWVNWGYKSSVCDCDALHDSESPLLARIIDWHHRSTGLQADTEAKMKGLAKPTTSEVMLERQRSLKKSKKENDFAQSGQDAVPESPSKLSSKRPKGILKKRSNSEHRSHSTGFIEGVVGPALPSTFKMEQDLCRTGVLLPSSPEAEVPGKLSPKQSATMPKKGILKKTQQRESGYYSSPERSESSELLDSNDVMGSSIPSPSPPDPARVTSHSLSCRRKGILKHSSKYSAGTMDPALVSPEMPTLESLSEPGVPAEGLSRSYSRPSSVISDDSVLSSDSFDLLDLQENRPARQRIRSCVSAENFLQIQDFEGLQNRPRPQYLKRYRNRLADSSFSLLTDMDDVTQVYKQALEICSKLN
compound,measurement,setting,value
C[C@@H](Oc1cc(-c2cnn(C3CCNCC3)c2)cnc1N)c1c(Cl)ccc(F)c1Cl [crizotinib],inhibition at 1 µM,PLK3,4%
same,inhibition at 1 µM,MYLK2,-16%
same,inhibition at 1 µM,ICK,3%
same,inhibition at 1 µM,CLK2,1%
same,inhibition at 1 µM,ABL2,43%
same,inhibition at 1 µM,RPS6KA3,-7%
same,inhibition at 1 µM,CDK15,3%
same,inhibition at 1 µM,RPS6KA4,-11%
same,inhibition at 1 µM,RPS6KA1,-6%
same,inhibition at 1 µM,SGK1,-1%
same,inhibition at 1 µM,NUAK1,36%
same,inhibition at 1 µM,NEK11,7%
same,inhibition at 1 µM,MAP3K12,12%
same,inhibition at 1 µM,CDK1,7%
same,inhibition at 1 µM,PTK2,40%
same,inhibition at 1 µM,STK16,-13%
same,inhibition at 1 µM,MAPK6,2%
same,inhibition at 1 µM,RPS6KA6,-10%
